Laboratory results published in US9636418B2 (priority 2013, dated 2017).
Read-outs that look alike come from different tables or passages of the source.

Tests used:
Experiment in all cases: cell-based
[1] = target: hNav1.5 (Homo sapiens, UniProt Q14524); conditions: for IC50: PatchXpress, read-out: PX hNav1.5 Tonic IC50; for Nav1.5/Nav1.7: ratio of PX tonic IC50 values
[2] = target: hNav1.7 (Homo sapiens, UniProt Q15858); assay type: cell-based; conditions: PatchXpress, read-out: PX hNav1.7 Tonic IC50
Sequence of hNav1.7 (Q15858 whole entry): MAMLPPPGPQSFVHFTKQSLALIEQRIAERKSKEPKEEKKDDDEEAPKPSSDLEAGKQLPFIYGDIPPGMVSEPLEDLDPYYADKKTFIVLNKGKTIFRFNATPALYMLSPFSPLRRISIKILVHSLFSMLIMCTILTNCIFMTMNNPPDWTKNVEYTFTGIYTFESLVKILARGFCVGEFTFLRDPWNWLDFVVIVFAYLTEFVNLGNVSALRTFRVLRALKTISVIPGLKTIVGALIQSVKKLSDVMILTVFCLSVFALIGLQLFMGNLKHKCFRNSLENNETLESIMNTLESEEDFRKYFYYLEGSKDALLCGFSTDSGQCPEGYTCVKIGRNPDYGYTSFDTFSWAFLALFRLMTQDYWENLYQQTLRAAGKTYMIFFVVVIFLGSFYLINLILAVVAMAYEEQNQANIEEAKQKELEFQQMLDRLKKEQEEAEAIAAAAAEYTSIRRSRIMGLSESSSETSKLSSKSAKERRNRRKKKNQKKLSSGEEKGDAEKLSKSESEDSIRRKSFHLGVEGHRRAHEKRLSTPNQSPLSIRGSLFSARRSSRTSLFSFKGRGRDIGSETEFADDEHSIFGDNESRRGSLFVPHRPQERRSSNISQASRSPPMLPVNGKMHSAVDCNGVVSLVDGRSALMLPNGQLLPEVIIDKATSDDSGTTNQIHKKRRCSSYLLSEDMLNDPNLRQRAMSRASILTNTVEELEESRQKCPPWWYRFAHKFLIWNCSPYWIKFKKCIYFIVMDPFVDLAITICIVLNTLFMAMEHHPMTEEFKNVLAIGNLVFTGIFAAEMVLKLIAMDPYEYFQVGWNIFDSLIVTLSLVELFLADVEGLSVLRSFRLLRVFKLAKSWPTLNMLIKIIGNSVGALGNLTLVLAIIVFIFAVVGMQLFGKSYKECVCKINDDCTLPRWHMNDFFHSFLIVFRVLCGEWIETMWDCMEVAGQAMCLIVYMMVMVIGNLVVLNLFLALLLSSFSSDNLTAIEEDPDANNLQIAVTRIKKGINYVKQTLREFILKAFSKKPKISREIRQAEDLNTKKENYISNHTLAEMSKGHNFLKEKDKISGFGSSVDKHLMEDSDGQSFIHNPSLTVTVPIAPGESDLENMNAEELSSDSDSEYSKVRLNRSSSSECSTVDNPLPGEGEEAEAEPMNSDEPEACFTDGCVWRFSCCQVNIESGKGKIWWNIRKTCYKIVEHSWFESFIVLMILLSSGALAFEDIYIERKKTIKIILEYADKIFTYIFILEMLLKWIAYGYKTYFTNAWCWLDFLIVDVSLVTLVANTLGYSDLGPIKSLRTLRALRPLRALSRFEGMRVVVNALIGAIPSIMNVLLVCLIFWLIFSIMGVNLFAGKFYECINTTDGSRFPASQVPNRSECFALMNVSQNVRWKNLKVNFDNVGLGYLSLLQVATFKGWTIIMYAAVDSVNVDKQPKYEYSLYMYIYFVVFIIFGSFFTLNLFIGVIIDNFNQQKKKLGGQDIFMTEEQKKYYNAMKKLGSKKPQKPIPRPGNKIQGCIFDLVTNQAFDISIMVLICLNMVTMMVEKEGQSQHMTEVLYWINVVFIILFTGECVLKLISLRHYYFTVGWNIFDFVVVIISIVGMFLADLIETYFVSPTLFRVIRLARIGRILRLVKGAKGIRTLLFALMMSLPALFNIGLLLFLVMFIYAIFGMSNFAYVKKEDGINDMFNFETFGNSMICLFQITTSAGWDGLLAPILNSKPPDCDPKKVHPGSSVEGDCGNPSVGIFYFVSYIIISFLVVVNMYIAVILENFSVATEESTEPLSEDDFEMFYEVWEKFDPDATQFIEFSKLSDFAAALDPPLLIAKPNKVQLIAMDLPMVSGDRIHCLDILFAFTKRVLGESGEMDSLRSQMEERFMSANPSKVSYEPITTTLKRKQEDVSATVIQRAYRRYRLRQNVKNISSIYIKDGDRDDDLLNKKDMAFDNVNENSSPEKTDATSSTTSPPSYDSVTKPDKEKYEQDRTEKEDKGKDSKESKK

[3] = target: hNav1.4 (Homo sapiens, UniProt P35499); conditions: for IC50: PatchXpress, read-out: PX hNav1.4 Tonic IC50
Sequence of hNav1.4 (P35499 whole entry): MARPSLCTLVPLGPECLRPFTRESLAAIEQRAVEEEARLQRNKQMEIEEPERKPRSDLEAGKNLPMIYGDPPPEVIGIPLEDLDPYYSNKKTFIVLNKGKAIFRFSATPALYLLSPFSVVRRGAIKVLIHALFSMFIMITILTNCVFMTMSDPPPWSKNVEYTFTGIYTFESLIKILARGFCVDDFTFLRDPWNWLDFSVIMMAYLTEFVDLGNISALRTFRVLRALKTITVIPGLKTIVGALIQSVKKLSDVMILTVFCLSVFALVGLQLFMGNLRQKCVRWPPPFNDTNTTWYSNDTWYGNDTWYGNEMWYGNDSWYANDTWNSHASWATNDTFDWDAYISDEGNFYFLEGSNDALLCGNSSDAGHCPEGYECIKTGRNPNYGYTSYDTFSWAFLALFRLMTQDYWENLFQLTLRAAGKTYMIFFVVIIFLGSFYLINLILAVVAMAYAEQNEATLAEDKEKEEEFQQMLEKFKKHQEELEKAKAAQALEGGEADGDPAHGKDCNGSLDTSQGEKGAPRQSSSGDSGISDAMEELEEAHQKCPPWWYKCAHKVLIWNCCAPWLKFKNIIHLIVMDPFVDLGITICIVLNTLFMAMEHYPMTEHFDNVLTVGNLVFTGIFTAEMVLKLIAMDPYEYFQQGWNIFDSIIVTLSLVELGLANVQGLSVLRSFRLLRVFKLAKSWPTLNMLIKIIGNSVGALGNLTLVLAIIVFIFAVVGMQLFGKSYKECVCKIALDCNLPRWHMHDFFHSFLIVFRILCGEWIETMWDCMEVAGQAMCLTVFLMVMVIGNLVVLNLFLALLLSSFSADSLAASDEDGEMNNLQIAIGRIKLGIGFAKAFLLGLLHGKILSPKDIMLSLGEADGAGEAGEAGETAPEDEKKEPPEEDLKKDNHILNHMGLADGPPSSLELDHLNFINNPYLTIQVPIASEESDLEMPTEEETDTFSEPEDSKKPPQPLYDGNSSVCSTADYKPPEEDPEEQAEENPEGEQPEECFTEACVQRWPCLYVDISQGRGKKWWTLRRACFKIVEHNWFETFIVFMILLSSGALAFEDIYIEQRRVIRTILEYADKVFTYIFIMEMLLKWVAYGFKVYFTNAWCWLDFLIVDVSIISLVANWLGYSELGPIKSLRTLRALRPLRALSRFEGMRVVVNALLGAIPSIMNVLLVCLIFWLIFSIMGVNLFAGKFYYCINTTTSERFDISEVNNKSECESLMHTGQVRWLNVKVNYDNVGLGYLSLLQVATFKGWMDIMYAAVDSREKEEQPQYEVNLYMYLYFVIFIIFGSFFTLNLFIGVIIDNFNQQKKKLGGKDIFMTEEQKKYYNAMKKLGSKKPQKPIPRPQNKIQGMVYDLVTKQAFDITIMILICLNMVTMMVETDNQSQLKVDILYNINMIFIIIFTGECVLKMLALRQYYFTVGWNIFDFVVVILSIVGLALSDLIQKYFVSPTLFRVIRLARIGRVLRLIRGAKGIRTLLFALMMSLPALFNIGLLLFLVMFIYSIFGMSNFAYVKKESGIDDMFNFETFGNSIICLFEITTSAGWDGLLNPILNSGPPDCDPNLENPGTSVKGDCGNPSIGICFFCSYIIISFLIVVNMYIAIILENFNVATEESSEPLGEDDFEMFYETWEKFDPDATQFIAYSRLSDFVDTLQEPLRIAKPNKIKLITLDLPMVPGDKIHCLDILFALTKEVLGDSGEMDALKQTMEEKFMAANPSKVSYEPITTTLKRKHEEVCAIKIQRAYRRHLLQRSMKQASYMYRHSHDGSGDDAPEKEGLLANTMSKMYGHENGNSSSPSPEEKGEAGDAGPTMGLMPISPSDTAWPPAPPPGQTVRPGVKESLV

[4] = * = at high concentrations compound would wash off slowly or not at all

Row | SMILES | IC50 ([1]; tonic block) [nM] | IC50 ([2]; tonic block) [nM] | IC50 ([3]; tonic block) [nM] | IC50 [1, 4] [nM] | IC50 [2, 4] [nM] | IC50 [3, 4] [nM] | Nav1.4/Nav1.7 ([3]; ratio of PX IC50 values) | Nav1.5/Nav1.7 [1] | Nav1.4/Nav1.7 ([3]; ratio of PX tonic IC50 values)
1 | C#CC[C@H](N)C(=O)N[C@@H](Cc1ccc(O)cc1)C(=O)N[C@H]1CSSC[C@@H]2NC(=O)[C@@H]3CSSC[C@@H](C(=O)N[C@@H](CCCNC(=N)N)C(=O)N[C@@H](CCCCN)C(=O)N[C@H](C(=O)N[C@@H](Cc4c[nH]c5ccccc45)C(N)=O)[C@@H](C)CC)NC(=O)[C@H](Cc4c[nH]c5ccccc45)NC(=O)[C@H](CC(C)C)NC(=O)[C@H](CCCCN)NC(=O)[C@H](CSSC[C@H](NC(=O)[C@H]([C@@H](C)O)NC(=O)[C@H](Cc4c[nH]c5ccccc45)NC(=O)[C@H](CC(C)C)NC(=O)[C@H](Cc4c[nH]c5ccccc45)NC(=O)[C@H](CCCCN)NC(=O)[C@H](CCC(N)=O)NC1=O)C(=O)N[C@@H](CC(=O)O)C(=O)N[C@@H](CO)C(=O)N[C@@H](CCCCN)C(=O)N[C@@H](CCCNC(=N)N)C(=O)N[C@@H](C)C(=O)N3)NC(=O)[C@H](CCC(=O)O)NC(=O)[C@H](CC(C)C)NC(=O)CNC(=O)[C@H](CCC(=O)O)NC2=O [compound 299] | 1330 | 0.571 | 1180 |  |  |  |  |  | 
2 | CCCC[C@@H]1NC(=O)[C@H](Cc2c[nH]c3ccccc23)NC(=O)[C@H](CCCCN)NC(=O)[C@H](CCC(N)=O)NC(=O)[C@@H](NC(=O)[C@H](Cc2ccc(O)cc2)NC(=O)[C@@H](C)N)CSSC[C@@H]2NC(=O)[C@@H]3CSSC[C@@H](C(=O)N[C@@H](CCCNC(=N)N)C(=O)N[C@@H](CCCCN)C(=O)N[C@H](C(=O)N[C@H](C(N)=O)[C@@H](C)CC)[C@@H](C)CC)NC(=O)[C@H](Cc4c[nH]c5ccccc45)NC(=O)[C@H](CC(C)C)NC(=O)[C@H](CCCCN)NC(=O)[C@H](CSSC[C@H](NC(=O)[C@H]([C@@H](C)O)NC(=O)[C@H](Cc4c[nH]c5ccccc45)NC1=O)C(=O)N[C@@H](CC(=O)O)C(=O)N[C@@H](CO)C(=O)N[C@@H](CCCCN)C(=O)N[C@@H](CCCNC(=N)N)C(=O)N[C@@H](C)C(=O)N3)NC(=O)[C@H](CCCNC(=N)N)NC(=O)[C@H](CC(C)C)NC(=O)CNC(=O)[C@H](CCC(=O)O)NC2=O [compound 372] |  |  |  | 730 | 0.957 | 5.1 | 5 |  | 
3 | CC[C@H](C)[C@H](NC(=O)[C@@H](NC(=O)[C@H](CCCCN)NC(=O)[C@H](CCCNC(=N)N)NC(=O)[C@@H]1CSSC[C@@H]2NC(=O)[C@H](C)NC(=O)[C@H](CCCNC(=N)N)NC(=O)[C@H](CCCCN)NC(=O)[C@H](CO)NC(=O)[C@H](CC(=O)O)NC(=O)[C@@H]3CSSC[C@H](NC(=O)[C@H](CCCNC(=N)N)NC(=O)[C@H](CC(C)C)NC(=O)CNC(=O)[C@H](CCC(=O)O)NC(=O)[C@H](CSSC[C@H](NC(=O)[C@@H](N)Cc4ccc(O)cc4)C(=O)N[C@@H](CCC(N)=O)C(=O)N[C@@H](CCCCN)C(=O)N[C@@H](Cc4c[nH]c5ccccc45)C(=O)N[C@@H](CCSC)C(=O)N[C@@H](Cc4cccc5ccccc45)C(=O)N[C@@H]([C@@H](C)O)C(=O)N3)NC2=O)C(=O)N[C@@H](CCCCN)C(=O)N[C@@H](CC(C)C)C(=O)N[C@@H](Cc2c[nH]c3ccccc23)C(=O)N1)[C@@H](C)CC)C(N)=O [compound 30] |  |  |  | 1420 | 0.4 | 0.9 | 2 |  | 
4 | CC[C@H](C)[C@H](NC(=O)[C@@H](NC(=O)[C@H](CCCCN)NC(=O)[C@H](CCCNC(=N)N)NC(=O)[C@@H]1CSSC[C@@H]2NC(=O)[C@H](C)NC(=O)[C@H](CCCNC(=N)N)NC(=O)[C@H](CCCCN)NC(=O)[C@H](CO)NC(=O)[C@H](CC(=O)O)NC(=O)[C@@H]3CSSC[C@H](NC(=O)[C@H](C)NC(=O)[C@H](CC(C)C)NC(=O)CNC(=O)[C@H](CCC(=O)O)NC(=O)[C@H](CSSC[C@H](NC(=O)[C@@H](N)Cc4ccc(O)cc4)C(=O)N[C@@H](CCC(N)=O)C(=O)N[C@@H](CCCCN)C(=O)N[C@@H](Cc4c[nH]c5ccccc45)C(=O)N[C@@H](CCSC)C(=O)N[C@@H](Cc4c[nH]c5ccccc45)C(=O)N[C@@H]([C@@H](C)O)C(=O)N3)NC2=O)C(=O)N[C@@H](CCCCN)C(=O)N[C@@H](CC(C)C)C(=O)N[C@@H](Cc2c[nH]c3ccccc23)C(=O)N1)[C@@H](C)CC)C(N)=O [compound 17] |  |  |  | 2750 | 12 | 100 | 8 |  | 
5 | C#CC[C@H](N)C(=O)N[C@@H](Cc1ccc(O)cc1)C(=O)N[C@H]1CSSC[C@@H]2NC(=O)[C@@H]3CSSC[C@@H](C(=O)N[C@@H](CCCNC(=N)N)C(=O)N[C@@H](CCCCN)C(=O)N[C@H](C(=O)N[C@@H](Cc4c[nH]c5ccccc45)C(N)=O)[C@@H](C)CC)NC(=O)[C@H](Cc4c[nH]c5ccccc45)NC(=O)[C@H](CC(C)C)NC(=O)[C@H](CCCCN)NC(=O)[C@H](CSSC[C@H](NC(=O)[C@H]([C@@H](C)O)NC(=O)[C@H](Cc4c[nH]c5ccccc45)NC(=O)[C@H](Cc4ccccc4)NC(=O)[C@H](Cc4c[nH]c5ccccc45)NC(=O)[C@H](CCCCN)NC(=O)[C@H](CCC(N)=O)NC1=O)C(=O)N[C@@H](CC(=O)O)C(=O)N[C@@H](CO)C(=O)N[C@@H](CCCCN)C(=O)N[C@@H](CCCNC(=N)N)C(=O)N[C@@H](C)C(=O)N3)NC(=O)[C@H](CCC(=O)O)NC(=O)[C@H](CC(C)C)NC(=O)CNC(=O)[C@H](CCC(=O)O)NC2=O [compound 298] | 780 | 15 | 661 |  |  |  |  | 52 | 44
6 | CCCC[C@@H]1NC(=O)[C@H](Cc2c[nH]c3ccccc23)NC(=O)[C@H](CCCCN)NC(=O)[C@H](CCC(N)=O)NC(=O)[C@@H](NC(=O)[C@H](Cc2ccc(O)cc2)NC(=O)CCN)CSSC[C@@H]2NC(=O)[C@@H]3CSSC[C@@H](C(=O)N[C@@H](CCCNC(=N)N)C(=O)N[C@@H](CCCCN)C(=O)N[C@H](C(=O)N[C@H](C(N)=O)[C@@H](C)CC)[C@@H](C)CC)NC(=O)[C@H](Cc4c[nH]c5ccccc45)NC(=O)[C@H](CC(C)C)NC(=O)[C@H](CCCCN)NC(=O)[C@H](CSSC[C@H](NC(=O)[C@H]([C@@H](C)O)NC(=O)[C@H](Cc4c[nH]c5ccccc45)NC1=O)C(=O)N[C@@H](CC(=O)O)C(=O)N[C@@H](CO)C(=O)N[C@@H](CCCCN)C(=O)N[C@@H](CCCNC(=N)N)C(=O)N[C@@H](C)C(=O)N3)NC(=O)[C@H](CCCNC(=N)N)NC(=O)[C@H](CC(C)C)NC(=O)CNC(=O)[C@H](CCC(=O)O)NC2=O [compound 376] |  |  |  | 700 | 0.951 | 3.2 | 3 |  | 
7 | CCCC[C@@H]1NC(=O)[C@H](Cc2c[nH]c3ccccc23)NC(=O)[C@H](CCCCN)NC(=O)[C@H](CCC(N)=O)NC(=O)[C@@H](NC(=O)[C@@H](N)Cc2ccc(O)cc2)CSSC[C@@H]2NC(=O)[C@@H]3CSSC[C@@H](C(=O)N[C@@H](CCCNC(=N)N)C(=O)N[C@@H](CCCCN)C(=O)N[C@H](C(=O)N[C@@H](Cc4c[nH]c5ccccc45)C(N)=O)[C@@H](C)CC)NC(=O)[C@H](Cc4c[nH]c5ccccc45)NC(=O)[C@H](CC(C)C)NC(=O)[C@H](CCCCN)NC(=O)[C@H](CSSC[C@H](NC(=O)[C@H]([C@@H](C)O)NC(=O)[C@H](Cc4c[nH]c5ccccc45)NC1=O)C(=O)N[C@@H](CC(=O)O)C(=O)N[C@@H](CO)C(=O)N[C@@H](CCCCN)C(=O)N[C@@H](CCCNC(=N)N)C(=O)N[C@@H](C)C(=O)N3)NC(=O)[C@H](CCC(=O)O)NC(=O)[C@H](CC(C)C)NC(=O)CNC(=O)[C@H](CCCCN=[N+]=[N-])NC2=O [compound 307] | 750 | 9.08 | 360 |  |  |  |  | 83 | 40
8 | C#CC[C@@H]1NC(=O)[C@H](CCCNC(=N)N)NC(=O)[C@H](CCCCN)NC(=O)[C@H](CO)NC(=O)[C@H](CC(=O)O)NC(=O)[C@@H]2CSSC[C@@H]3NC(=O)[C@H](CCC(=O)O)NC(=O)[C@H](CC(C)C)NC(=O)CNC(=O)[C@H](CCC(=O)O)NC(=O)[C@H](CSSC[C@H](NC(=O)[C@@H](N)Cc4ccc(O)cc4)C(=O)N[C@@H](CCC(N)=O)C(=O)N[C@@H](CCCCN)C(=O)N[C@@H](Cc4c[nH]c5ccccc45)C(=O)N[C@@H](CCCC)C(=O)N[C@@H](Cc4c[nH]c5ccccc45)C(=O)N[C@@H]([C@@H](C)O)C(=O)N2)NC(=O)[C@H](CSSC[C@@H](C(=O)N[C@@H](CCCNC(=N)N)C(=O)N[C@@H](CCCCN)C(=O)N[C@@H](Cc2ccc(O)cc2)C(=O)N[C@H](C(N)=O)[C@@H](C)CC)NC(=O)[C@H](Cc2c[nH]c4ccccc24)NC(=O)[C@H](CC(C)C)NC(=O)[C@H](CCCCN)NC3=O)NC1=O [compound 316] | 3690 | 1.76 | 707 |  |  |  |  |  | 
9 | CCCC[C@@H]1NC(=O)[C@H](Cc2c[nH]c3ccccc23)NC(=O)[C@H](CCCCN)NC(=O)[C@H](CCC(N)=O)NC(=O)[C@@H](NC(=O)[C@H](Cc2ccc(O)cc2)NC(=O)[C@@H](N)Cc2cn(CCOCCOCCOCCOCCOCCOCCOCCOCCOCCOCCOCCNC(=O)CSCc3ccccc3)nn2)CSSC[C@@H]2NC(=O)[C@@H]3CSSC[C@@H](C(=O)N[C@@H](CCCNC(=N)N)C(=O)N[C@@H](CCCCN)C(=O)N[C@H](C(=O)N[C@H](C(N)=O)[C@@H](C)CC)[C@@H](C)CC)NC(=O)[C@H](Cc4c[nH]c5ccccc45)NC(=O)[C@H](CC(C)C)NC(=O)[C@H](CCCCN)NC(=O)[C@H](CSSC[C@H](NC(=O)[C@H]([C@@H](C)O)NC(=O)[C@H](Cc4c[nH]c5ccccc45)NC1=O)C(=O)N[C@@H](CC(=O)O)C(=O)N[C@@H](CO)C(=O)N[C@@H](CCCCN)C(=O)N[C@@H](CCCNC(=N)N)C(=O)N[C@@H](C)C(=O)N3)NC(=O)[C@H](CCCNC(=N)N)NC(=O)[C@H](CC(C)C)NC(=O)CNC(=O)[C@H](CCC(=O)O)NC2=O [compound 427] |  |  |  | 1980 | 1.4 | 13 | 9 |  | 
